Laboratory results published in ChEMBL document CHEMBL4308841, “Synthesis, in vitro antiproliferative activity, and kinase inhibitory effects of pyrazole-containing diarylureas and diarylamides” (Eur J Med Chem, 2018).

Key:
[1] = system: CCRF-CEM; assay: Growth inhibition of human CCRF-CEM cells assessed as cell growth at 0.01 uM incubated for 48 hrs by sulforhodamine B assay relative to control; assay type: functional; conditions: read-out: Activity
[2] = system: A498; assay: Growth inhibition of human A498 cells assessed as cell growth at 0.1 uM incubated for 48 hrs by sulforhodamine B assay relative to control; assay type: functional; conditions: A498, 48 h, read-out: Activity
[3] = system: CAKI-1; assay: Growth inhibition of human Caki1 cells incubated for 48 hrs by sulforhodamine B assay; assay type: functional, cell-based; conditions: CAKI-1, 48 h
[4] = system: M14; assay: Growth inhibition of human M14 cells assessed as cell growth at 1 uM incubated for 48 hrs by sulforhodamine B assay relative to control; assay type: functional; conditions: M14, 48 h, read-out: Activity
[5] = system: MCF7; assay: Growth inhibition of human MCF7 cells assessed as cell growth at 0.1 uM incubated for 48 hrs by sulforhodamine B assay relative to control; assay type: functional; conditions: MCF7, 48 h, read-out: Activity
[6] = system: NCI/ADR-RES; assay: Growth inhibition of human NCI/ADR-RES cells assessed as cell growth at 1 uM incubated for 48 hrs by sulforhodamine B assay relative to control; assay type: functional; conditions: read-out: Activity
[7] = system: HCC 2998; assay: Growth inhibition of human HCC2998 cells incubated for 48 hrs by sulforhodamine B assay; assay type: functional, cell-based; conditions: HCC 2998, 48 h
[8] = system: HOP-62; assay: Growth inhibition of human HOP62 cells assessed as cell growth at 1 uM incubated for 48 hrs by sulforhodamine B assay relative to control; assay type: functional; conditions: HOP-62, 48 h, read-out: Activity
[9] = system: OVCAR-8; assay: Growth inhibition of human OVCAR8 cells assessed as cell growth at 0.1 uM incubated for 48 hrs by sulforhodamine B assay relative to control; assay type: functional; conditions: OVCAR-8, 48 h, read-out: Activity
[10] = system: HCC 2998; assay: Growth inhibition of human HCC2998 cells assessed as cell growth at 1 uM incubated for 48 hrs by sulforhodamine B assay relative to control; assay type: functional; conditions: HCC 2998, 48 h, read-out: Activity
[11] = system: UACC-257; assay: Growth inhibition of human UACC257 cells assessed as cell growth at 0.01 uM incubated for 48 hrs by sulforhodamine B assay relative to control; assay type: functional; conditions: UACC-257, 48 h, read-out: Activity
[12] = system: KM12; assay: Growth inhibition of human KM12 cells assessed as cell growth at 1 uM incubated for 48 hrs by sulforhodamine B assay relative to control; assay type: functional; conditions: KM12, 48 h, read-out: Activity
[13] = system: COLO 205; assay: Growth inhibition of human COLO205 cells assessed as cell growth at 1 uM incubated for 48 hrs by sulforhodamine B assay relative to control; assay type: functional; conditions: COLO 205, 48 h, read-out: Activity
[14] = system: SK-OV-3; assay: Growth inhibition of human SKOV3 cells assessed as cell growth at 1 uM incubated for 48 hrs by sulforhodamine B assay relative to control; assay type: functional; conditions: SK-OV-3, 48 h, read-out: Activity
[15] = system: A549; assay: Growth inhibition of human A549/ATCC cells assessed as cell growth at 0.1 uM incubated for 48 hrs by sulforhodamine B assay relative to control; assay type: functional; conditions: A549, 48 h, read-out: Activity
[16] = system: HOP-62; assay: Growth inhibition of human HOP62 cells assessed as cell growth at 0.1 uM incubated for 48 hrs by sulforhodamine B assay relative to control; assay type: functional; conditions: HOP-62, 48 h, read-out: Activity
[17] = system: NCI-H226; assay: Growth inhibition of human NCI-H226 cells assessed as cell growth at 100 uM incubated for 48 hrs by sulforhodamine B assay relative to control; assay type: functional; conditions: NCI-H226, 48 h, read-out: Activity
[18] = system: UO-31; assay: Growth inhibition of human UO31 cells assessed as cell growth at 0.01 uM incubated for 48 hrs by sulforhodamine B assay relative to control; assay type: functional; conditions: UO-31, 48 h, read-out: Activity
[19] = system: SF-268; assay: Growth inhibition of human SF268 cells incubated for 48 hrs by sulforhodamine B assay; assay type: functional, cell-based; conditions: SF-268, 48 h
[20] = system: BT-549; assay: Growth inhibition of human BT549 cells assessed as cell growth at 0.01 uM incubated for 48 hrs by sulforhodamine B assay relative to control; assay type: functional; conditions: BT-549, 48 h, read-out: Activity
[21] = system: TK-10; assay: Growth inhibition of human TK10 cells assessed as cell growth at 10 uM incubated for 48 hrs by sulforhodamine B assay relative to control; assay type: functional; conditions: TK-10, 48 h, read-out: Activity
[22] = system: RXF 393; assay: Growth inhibition of human RXF393 cells assessed as cell growth at 1 uM incubated for 48 hrs by sulforhodamine B assay relative to control; assay type: functional; conditions: RXF 393, 48 h, read-out: Activity
[23] = system: HT-29; assay: Growth inhibition of human HT-29 cells assessed as cell growth at 10 uM incubated for 48 hrs by sulforhodamine B assay relative to control; assay type: functional; conditions: HT-29, 48 h, read-out: Activity
[24] = system: OVCAR-8; assay: Growth inhibition of human OVCAR8 cells assessed as cell growth at 100 uM incubated for 48 hrs by sulforhodamine B assay relative to control; assay type: functional; conditions: OVCAR-8, 48 h, read-out: Activity
[25] = system: COLO 205; assay: Growth inhibition of human COLO205 cells assessed as cell growth at 0.1 uM incubated for 48 hrs by sulforhodamine B assay relative to control; assay type: functional; conditions: COLO 205, 48 h, read-out: Activity
[26] = system: DU-145; assay: Growth inhibition of human DU145 cells assessed as cell growth at 100 uM incubated for 48 hrs by sulforhodamine B assay relative to control; assay type: functional; conditions: DU-145, 48 h, read-out: Activity
[27] = system: SK-MEL-5; assay: Growth inhibition of human SK-MEL-5 cells assessed as cell growth at 1 uM incubated for 48 hrs by sulforhodamine B assay relative to control; assay type: functional; conditions: SK-MEL-5, 48 h, read-out: Activity
[28] = system: OVCAR-5; assay: Growth inhibition of human OVCAR5 cells assessed as cell growth at 1 uM incubated for 48 hrs by sulforhodamine B assay relative to control; assay type: functional; conditions: OVCAR-5, 48 h, read-out: Activity
[29] = system: SN12C; assay: Growth inhibition of human SN12C cells assessed as cell growth at 100 uM incubated for 48 hrs by sulforhodamine B assay relative to control; assay type: functional; conditions: read-out: Activity
[30] = system: COLO 205; assay: Growth inhibition of human COLO205 cells assessed as cell growth at 100 uM incubated for 48 hrs by sulforhodamine B assay relative to control; assay type: functional; conditions: COLO 205, 48 h, read-out: Activity
[31] = system: HCC 2998; assay: Growth inhibition of human HCC2998 cells assessed as cell growth at 0.1 uM incubated for 48 hrs by sulforhodamine B assay relative to control; assay type: functional; conditions: HCC 2998, 48 h, read-out: Activity
[32] = system: HL-60(TB); assay: Growth inhibition of human HL-60(TB) cells assessed as cell growth at 1 uM incubated for 48 hrs by sulforhodamine B assay relative to control; assay type: functional; conditions: HL-60, 48 h, read-out: Activity
[33] = read-out: LC50 (the source's name)
[34] = read-out: pLC50 (the source's name) (converted)

For COc1cc(Cl)cc(-c2nn(-c3cccc(NC(=O)c4ccc(N5CCOCC5)c(C(F)(F)F)c4)c3)cc2-c2ccncc2)c1, the growth at 0.01 µM [1] was 96%, the growth at 0.1 µM [2] was 85% and the GI50 ([3]; read-out: GI50) was 4.4 µM. The CC50 [3, 33] was > 100 µM, the TGI ([3]; read-out: TGI) was > 100 µM and the GI50 ([3]; read-out: pGI50 (converted)) was 4.37 µM. The CC50 [3, 34] was > 100 µM, the TGI ([3]; read-out: pTGI (converted)) was > 100 µM and the growth at 1 µM [4] was 58%. It also gave a growth at 0.1 µM [5] of 92%, a growth at 1 µM [6] of 92% and a GI50 ([7]; read-out: GI50) of 5.06 µM. The CC50 [7, 33] was > 100 µM, the TGI ([7]; read-out: TGI) was 74.7 µM and the GI50 ([7]; read-out: pGI50 (converted)) was 6.03 µM. The CC50 [7, 34] was > 100 µM, the TGI ([7]; read-out: pTGI (converted)) was 74.1 µM and the growth at 1 µM [8] was 107%. The growth at 0.1 µM [9] was 100%, the growth at 1 µM [10] was 100% and the growth at 0.01 µM [11] was 91%. The growth at 1 µM [12] was 52%, the growth at 1 µM [13] was 104% and the growth at 1 µM [14] was 103%. It also gave a growth at 0.1 µM [15] of 102%, a growth at 0.1 µM [16] of 105% and a growth at 100 µM [17] of 50%. For the same molecule, the growth at 0.01 µM [18] was 92%, the GI50 ([19]; read-out: GI50) was > 100 µM and the CC50 [19, 33] was > 100 µM. The TGI ([19]; read-out: TGI) was > 100 µM, the GI50 ([19]; read-out: pGI50 (converted)) was > 100 µM and the CC50 [19, 34] was > 100 µM. For the same molecule, the TGI ([19]; read-out: pTGI (converted)) was > 100 µM, the growth at 0.01 µM [20] was 104% and the growth at 10 µM [21] was 90.6%. It also gave a growth at 1 µM [22] of 45%, a growth at 10 µM [23] of 21.2% and a growth at 100 µM [24] of 32%. It also gave a growth at 0.1 µM [25] of 100%, a growth at 100 µM [26] of 54% and a growth at 1 µM [27] of 50%. For the same molecule, the growth at 1 µM [28] was 75%, the growth at 100 µM [29] was 55% and the growth at 100 µM [30] was 38%. It also gave a growth at 0.1 µM [31] of 94% and a growth at 1 µM [32] of 105%.

Molecule O=C(Nc1cccc(-n2cc(-c3ccncc3)c(-c3cc(O)cc(Cl)c3)n2)c1)Nc1ccc(Cl)c(C(F)(F)F)c1 has a growth at 0.01 µM [1] of 97%, a growth at 0.1 µM [2] of 50% and a GI50 ([3]; read-out: GI50) of 2.53 µM. The CC50 [3, 33] was > 100 µM, the TGI ([3]; read-out: TGI) was 78.7 µM and the GI50 ([3]; read-out: pGI50 (converted)) was 2.69 µM. For the same molecule, the CC50 [3, 34] was > 100 µM, the TGI ([3]; read-out: pTGI (converted)) was 7.94 µM and the growth at 1 µM [4] was 83%. The growth at 0.1 µM [5] was 91%, the growth at 1 µM [6] was 97% and the GI50 ([7]; read-out: GI50) was 3.93 µM. For the same molecule, the CC50 [7, 33] was 43 µM, the TGI ([7]; read-out: TGI) was 13.4 µM and the GI50 ([7]; read-out: pGI50 (converted)) was 3.89 µM. For the same molecule, the CC50 [7, 34] was 42.7 µM, the TGI ([7]; read-out: pTGI (converted)) was 13.5 µM and the growth at 1 µM [8] was 96%. It also gave a growth at 0.1 µM [9] of 100%, a growth at 1 µM [10] of 106% and a growth at 0.01 µM [11] of 90%. It also gave a growth at 1 µM [12] of 56%, a growth at 1 µM [13] of 99% and a growth at 1 µM [14] of 107%. For the same molecule, the growth at 0.1 µM [15] was 100%, the growth at 0.1 µM [16] was 97% and the growth at 100 µM [17] was -38%. The growth at 0.01 µM [18] was 93%, the GI50 ([19]; read-out: GI50) was 3.1 µM and the CC50 [19, 33] was > 100 µM. For the same molecule, the TGI ([19]; read-out: TGI) was 18 µM, the GI50 ([19]; read-out: pGI50 (converted)) was 3.09 µM and the CC50 [19, 34] was > 100 µM. For the same molecule, the TGI ([19]; read-out: pTGI (converted)) was 15.8 µM, the growth at 0.01 µM [20] was 102% and the growth at 10 µM [21] was 25.9%. It also gave a growth at 1 µM [22] of 58%, a growth at 10 µM [23] of 35.3% and a growth at 100 µM [24] of -52%. The growth at 0.1 µM [25] was 95%, the growth at 100 µM [26] was -68% and the growth at 1 µM [27] was 90%. For the same molecule, the growth at 1 µM [28] was 109%, the growth at 100 µM [29] was -32% and the growth at 100 µM [30] was -77%. For the same molecule, the growth at 0.1 µM [31] was 97% and the growth at 1 µM [32] was 113%.
